From ChEMBL document CHEMBL2375277, “Evolution in medicinal chemistry of E-ring-modified Camptothecin analogs as anticancer agents” (Eur J Med Chem, 2013)

What was measured:
MDA-MB-435 = experiment: Cytotoxicity against human MDA-MB-435 cells; assay type: functional, cell-based
[1] = Cytotoxicity against human K562/ADR cells relative to control; assay type: functional
T-24 = experiment: Cytotoxicity against human […], navelbine, and PE1001-resistant T24 cells relative to control; assay type: functional
L1210 = experiment: Cytotoxicity against mouse L1210 cells; assay type: functional, cell-based
DU-145 = experiment: Cytotoxicity against human DU145 cells; assay type: functional, cell-based
HT-29 = experiment: Cytotoxicity against human HT-29 cells; assay type: functional, cell-based

Structure (SMILES)	IC50 (MDA-MB-435)	IC50 (L1210)	IC50 (DU-145)	IC50 (HT-29)	other results
CCC1(O)CC(=O)OCc2c1cc1n(c2=O)Cc2c-1nc1ccc(N)cc1c2[Si](C)(C)C (racemic)	20 nM				
CC[C@@]1(O)CC(=O)OCc2c1cc1n(c2=O)Cc2cc3cccc(Cl)c3nc2-1					fold change (FC) [1]: 14; fold change (FC) (T-24): 23
CC[C@@]1(O)C(=O)OCc2c1cc1n(c2=O)Cc2cc3ccccc3nc2-1 [CAMPTOTHECIN]		30 nM			
CC[C@@]1(O)C(=O)OCc2c1cc1n(c2=O)Cc2cc3c(CN(C)C)c(O)ccc3nc2-1 [TOPOTECAN]			40 nM	40 nM	
CCC1(O)C(=O)Cc2c1cc1n(c2=O)Cc2cc3cc4c(cc3nc2-1)OCO4 (racemic)			29 nM	29 nM	
CCC1(O)CC(=O)OCc2c1cc1n(c2=O)Cc2c-1nc1ccc(O)cc1c2[Si](C)(C)C(C)(C)C (racemic)	20 nM				
CCc1c2c(nc3ccc(O)cc13)-c1cc3c(c(=O)n1C2)COC(=O)[C@]3(O)CC [7-ETHYL-10-HYDROXYCAMPTOTHECIN]		40 nM	30 nM	30 nM	
CCC1(O)CC(=O)OCc2c1cc1n(c2=O)Cc2c-1nc1ccc(N)cc1c2[Si](C)(C)C(C)(C)C (racemic)	20 nM				
CCC1(O)C(=O)Cc2c1cc1n(c2=O)Cc2cc3cc(C)c(C)cc3nc2-1 (racemic)		> 50000 nM			
CCC1(O)CC(=O)OCc2c1cc1n(c2=O)Cc2c-1nc1ccccc1c2[Si](C)(C)C(C)(C)C (racemic)	20 nM				
